Key:
[1] = system: control sera (pooled serum of ten healthy LUMC hospital workers; commercial negative donor pooled serum from the Dutch bloodbank); assay type: binding, human; set-up: Binding of Control serum LUMC to linear peptides / Binding of Control serum Blood-bank to linear peptides / Binding of Control serum LUMC to looped peptides / Binding of Control Serum Blood-Bank to Looped peptides / Binding of Control serum LUMC to linear peptides of the protein M of SARS-CoV Urbani / Binding of Control serum Blood-bank to linear peptides of the protein M of SARS-CoV Urbani / Binding of Control serum LUMC to looped peptides of the protein M of SARS-CoV Urbani / Binding of Control Serum Blood-Bank to Looped peptides of the protein M of SARS-CoV Urbani: unit not given here
[2] = system: rabbit serum obtained by immunizing a rabbit with the SARS-CoV strain Frankfurt 1; assay type: binding; set-up: Binding of a rabbit serum to linear peptides / Binding of a rabbit serum to looped peptides / Rabbit serum linear peptides / Rabbit serum looped peptides / Binding of a rabbit serum to linear peptides of protein N of SARS-CoV Urbani (Rabbit serum linear peptides) / Binding of a rabbit serum to looped/cyclic peptides of protein N of SARS-CoV Urbani (Rabbit serum looped peptides): unit not given here

Sequence | Binding of Control Serum Blood-Bank to Looped peptides [1] | Binding of Control serum Blood-bank to linear peptides [1] | Binding of Control serum LUMC to linear peptides [1] | Binding of Control serum LUMC to looped peptides [1] | Binding of a rabbit serum to linear peptides [2] | Binding of a rabbit serum to looped peptides [2] | Binding of Control Serum Blood-Bank to Looped peptides of the protein X3 of SARS-CoV Urbani [1] | Binding of Control serum Blood-bank to linear peptides of the protein X3 of SARS-CoV Urbani [1] | Binding of Control serum LUMC to linear peptides of the protein X3 of SARS-CoV Urbani [1] | Binding of Control serum LUMC to looped peptides of the protein X3 of SARS-CoV Urbani [1] | Rabbit serum linear peptides [2] | Rabbit serum looped peptides [2] | Binding of Control Serum Blood-Bank to Looped peptides of the protein M of SARS-CoV Urbani [1] | Binding of Control serum Blood-bank to linear peptides of the protein M of SARS-CoV Urbani [1] | Binding of Control serum LUMC to linear peptides of the protein M of SARS-CoV Urbani [1] | Binding of Control serum LUMC to looped peptides of the protein M of SARS-CoV Urbani [1] | Recognition of the peptide by the rabbit serum [2]
RIGTQVLKTMSLYMA | 0.6 | 0.8 | 0.5 | 0.5 | 0.4 | 0.5 |  |  |  |  |  |  |  |  |  |  | 
RQLFKPLTKKNYSEL |  |  |  |  |  |  | 0.9 | 0.9 | 0.8 | 0.7 | 0.3 | 0.5 |  |  |  |  | 
RVKNLNSSEGVPDLL | 0.7 | 1.0 | 1.0 | 1.0 | 0.8 | 0.6 |  |  |  |  |  |  |  |  |  |  | 
SIVRQLFKPLTKKNY |  |  |  |  |  |  | 0.8 | 0.8 | 0.7 | 0.8 | 0.3 | 0.4 |  |  |  |  | 
SLVKPTVYVYSRVKN | 0.7 | 0.7 | 1.0 | 0.8 | 0.3 | 0.6 |  |  |  |  |  |  |  |  |  |  | 
SSGVANPAMDPIYDE | 0.7 | 0.5 | 0.5 | 0.7 | 0.1 | 0.6 |  |  |  |  |  |  |  |  |  |  | 
SSIVRQLFKPLTKKN |  |  |  |  |  |  | 0.8 | 1.2 | 1.1 | 0.7 | 0.4 | 0.5 |  |  |  |  | 
SYYKLGASQRVGTDS |  |  |  |  |  |  |  |  |  |  | 0.4 | 0.3 | 0.8 | 0.8 | 0.4 | 0.7 | 
TAQPVKIDNASPAST | 0.5 | 0.7 | 0.6 | 0.6 | 0.1 | 0.4 |  |  |  |  |  |  |  |  |  |  | 
TGGIAIAMACIVGLM |  |  |  |  |  |  |  |  |  |  | 0.5 | 0.3 | 1.1 | 1.1 | 0.6 | 1.1 | 
THNYDYCIPYNSVTD | 0.7 | 0.5 | 0.6 | 0.7 | 0.1 | 0.6 |  |  |  |  |  |  |  |  |  |  | 
TKKNYSELDDEEPME |  |  |  |  |  |  | 0.4 | 0.8 | 0.4 | 0.9 | 0.2 | 0.1 |  |  |  |  | 
TKLVVILRIGTQVLK | 0.6 | 0.7 | 0.5 | 0.7 | 0.3 | 0.6 |  |  |  |  |  |  |  |  |  |  | 
TPKLKEDYQIGGYSE | 0.7 | 0.5 | 0.6 | 0.9 | 0.1 | 1.2 |  |  |  |  |  |  |  |  |  |  | 
TQVLKTMSLYMAISP | 0.7 | 0.7 | 0.7 | 0.8 | 0.1 | 0.4 |  |  |  |  |  |  |  |  |  |  | 
TTKLVVILRIGTQVL | 0.6 | 0.3 | 0.3 | 0.7 |  |  |  |  |  |  |  |  |  |  |  |  | recognized

Sequence | Binding of Control Serum Blood-Bank to Looped peptides [1] | Binding of Control serum Blood-bank to linear peptides [1] | Binding of Control serum LUMC to linear peptides [1] | Binding of Control serum LUMC to looped peptides [1] | Binding of a rabbit serum to linear peptides [2] | Binding of a rabbit serum to looped peptides [2] | Binding of Control Serum Blood-Bank to Looped peptides of the protein X3 of SARS-CoV Urbani [1] | Binding of Control serum Blood-bank to linear peptides of the protein X3 of SARS-CoV Urbani [1] | Binding of Control serum LUMC to linear peptides of the protein X3 of SARS-CoV Urbani [1] | Binding of Control serum LUMC to looped peptides of the protein X3 of SARS-CoV Urbani [1] | Rabbit serum linear peptides [2] | Rabbit serum looped peptides [2] | Binding of Control Serum Blood-Bank to Looped peptides of the protein M of SARS-CoV Urbani [1] | Binding of Control serum Blood-bank to linear peptides of the protein M of SARS-CoV Urbani [1] | Binding of Control serum LUMC to linear peptides of the protein M of SARS-CoV Urbani [1] | Binding of Control serum LUMC to looped peptides of the protein M of SARS-CoV Urbani [1] | Recognition of the peptide by the rabbit serum [2]
TVYVYSRVKNLNSSE | 0.7 | 0.5 | 0.3 | 0.9 | 0.8 | 0.3 |  |  |  |  |  |  |  |  |  |  | 
VANPAMDPIYDEPTT | 0.5 | 0.4 | 0.2 | 0.5 | 0.1 | 0.5 |  |  |  |  |  |  |  |  |  |  | 
VCWHTHNYDYCIPYN | 0.7 | 0.7 | 0.8 | 0.6 | 0.1 | 0.6 |  |  |  |  |  |  |  |  |  |  | 
VIISSIVRQLFKPLT |  |  |  |  |  |  | 0.7 | 0.8 | 0.7 | 0.8 | 0.5 | 0.3 |  |  |  |  | 
VKNLNSSEGVPDLLV | 0.8 | 0.7 | 1.1 | 0.9 | 0.3 | 0.6 |  |  |  |  |  |  |  |  |  |  | 
VKPTVYVYSRVKNLN | 0.8 | 0.8 | 0.4 | 0.8 | 0.5 | 0.7 |  |  |  |  |  |  |  |  |  |  | 
VNVSLVKPTVYVYSR | 0.6 | 0.6 | 0.8 | 0.8 | 0.4 | 0.6 |  |  |  |  |  |  |  |  |  |  | 
VSLVKPTVYVYSRVK | 0.6 | 0.9 | 0.6 | 0.9 | 1.5 | 2.0 |  |  |  |  |  |  |  |  |  |  | 
VYSRVKNLNSSEGVP | 1.0 | 0.9 | 0.6 | 0.7 | 0.7 | 0.0 |  |  |  |  |  |  |  |  |  |  | 
VYVYSRVKNLNSSEG | 0.8 | 0.5 | 0.8 | 0.8 | 0.3 | 0.4 |  |  |  |  |  |  |  |  |  |  | 
WHTHNYDYCIPYNSV | 0.7 | 0.7 | 0.8 | 0.9 | 0.1 | 0.6 |  |  |  |  |  |  |  |  |  |  | 
WHTMVQTCTPNVTIN | 0.5 | 1.0 | 0.5 | 0.4 |  |  |  |  |  |  | 0.5 | 0.0 |  |  |  |  | 
YCCNIVNVSLVKPTV | 0.7 | 0.9 | 0.6 | 0.6 | 0.7 | 0.3 |  |  |  |  |  |  |  |  |  |  | 
YCIPYNSVTDTIVVT | 0.7 | 0.8 | 0.7 | 0.7 | 0.1 | 0.5 |  |  |  |  |  |  |  |  |  |  | 
YDYCIPYNSVTDTIV | 0.5 | 0.6 | 0.7 | 0.6 | 0.1 | 0.5 |  |  |  |  |  |  |  |  |  |  | 
